Results from patent US8192962B2, “Processes for detecting toxic substances” (Daikin Industries, Ltd., priority 2001, dated 2012).

Test system: Metabolism protein genes
Assay: DNA chip mRNA expression in yeast, metabolism protein genes (Table 7)
Format: cell-based, Saccharomyces cerevisiae S288C
Procedure, shortened: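 Cells were grown at 25° C. in YPD, treated at logarithmic phase for 2 h with a chemical at a concentration inhibiting growth but not causing death, and compared with untreated cultures. Labeled cDNA was hybridized to a DNA chip carrying all yeast genes, and the expression ratio was taken from scanner fluorescence.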

In the case of Na2As [(1)], the “The level of expressed mRNA in the presence of chemical substance/The level of expressed mRNA in the absence of chemical substance” value (yeast gene YAL012W) is reported as 1.1, the “The level of expressed mRNA in the presence of chemical substance/The level of expressed mRNA in the absence of chemical substance” value (yeast gene YAL038W) is reported as 1.0 and the “level of expressed mRNA in the presence/in the absence of chemical substance” value (yeast gene YBR003W) is reported as 0.9. The “level of expressed mRNA in the presence/in the absence of chemical substance” value (yeast gene YBR011C) was 1.3, the “level of expressed mRNA in the presence/in the absence of chemical substance” value (yeast gene YBR020W) was 1.0 and the “The level of expressed mRNA in the presence of chemical substance/The level of expressed mRNA in the absence of chemical substance” value (yeast gene YBR023C) was 0.5. For the same substance, the “The level of expressed mRNA in the presence of chemical substance/The level of expressed mRNA in the absence of chemical substance” value (yeast gene YBR029C) was 0.7, the “The level of expressed mRNA in the presence of chemical substance/The level of expressed mRNA in the absence of chemical substance” value (yeast gene YBR183W) was 1.8 and the “The level of expressed mRNA in the presence of chemical substance/The level of expressed mRNA in the absence of chemical substance” value (yeast gene YBR222C) was 0.6. For the same substance, the “The level of expressed mRNA in the presence of chemical substance/The level of expressed mRNA in the absence of chemical substance” value (yeast gene YBR256C) was 3.0, the “The level of expressed mRNA in the presence of chemical substance/The level of expressed mRNA in the absence of chemical substance” value (yeast gene YCL009C) was 0.6 and the “The level of expressed mRNA in the presence of chemical substance/The level of expressed mRNA in the absence of chemical substance” value (yeast gene YCL064C) was 0.6. For the same substance, the “level of expressed mRNA in the presence/in the absence of chemical substance” value (yeast gene YCR010C) was 1.6, the “level of expressed mRNA in the presence/in the absence of chemical substance” value (yeast gene YCR034W) was 0.8 and the “The level of expressed mRNA in the presence of chemical substance/The level of expressed mRNA in the absence of chemical substance” value (yeast gene YCR048W) was 0.5. The “The level of expressed mRNA in the presence of chemical substance/The level of expressed mRNA in the absence of chemical substance” value (yeast gene YCR098C) was 1.6, the “The level of expressed mRNA in the presence of chemical substance/The level of expressed mRNA in the absence of chemical substance” value (yeast gene YDR019C) was 1.4 and the “level of expressed mRNA in the presence/in the absence of chemical substance” value (yeast gene YDR050C) was 1.6. For the same substance, the “level of expressed mRNA in the presence/in the absence of chemical substance” value (yeast gene YDR073W) was 1.7, the “level of expressed mRNA in the presence/in the absence of chemical substance” value (yeast gene YDR123C) was 1.2 and the “level of expressed mRNA in the presence/in the absence of chemical substance” value (yeast gene YDR178W) was 2.0. The “level of expressed mRNA in the presence/in the absence of chemical substance” value (yeast gene YDR277C) was 1.6, the “level of expressed mRNA in the presence/in the absence of chemical substance” value (yeast gene YDR284C) was 0.8 and the “level of expressed mRNA in the presence/in the absence of chemical substance” value (yeast gene YDR345C) was 0.8. For the same substance, the “The level of expressed mRNA in the presence of chemical substance/The level of expressed mRNA in the absence of chemical substance” value (yeast gene YDR380W) was 0.8, the “level of expressed mRNA in the presence/in the absence of chemical substance” value (yeast gene YDR400W) was 1.0 and the “level of expressed mRNA in the presence/in the absence of chemical substance” value (yeast gene YDR408C) was 1.0. The “level of expressed mRNA in the presence/in the absence of chemical substance” value (yeast gene YDR483W) was 1.1, the “The level of expressed mRNA in the presence of chemical substance/The level of expressed mRNA in the absence of chemical substance” value (yeast gene YDR497C) was 0.7 and the “The level of expressed mRNA in the presence of chemical substance/The level of expressed mRNA in the absence of chemical substance” value (yeast gene YDR502C) was 1.2. For the same substance, the “The level of expressed mRNA in the presence of chemical substance/The level of expressed mRNA in the absence of chemical substance” value (yeast gene YDR516C) was 1.2, the “level of expressed mRNA in the presence/in the absence of chemical substance” value (yeast gene YEL063C) was 0.7 and the “level of expressed mRNA in the presence/in the absence of chemical substance” value (yeast gene YER015W) was 0.7. For the same substance, the “The level of expressed mRNA in the presence of chemical substance/The level of expressed mRNA in the absence of chemical substance” value (yeast gene YER026C) was 0.8, the “The level of expressed mRNA in the presence of chemical substance/The level of expressed mRNA in the absence of chemical substance” value (yeast gene YER053C) was 1.6 and the “The level of expressed mRNA in the presence of chemical substance/The level of expressed mRNA in the absence of chemical substance” value (yeast gene YER069W) was 1.3. For the same substance, the “level of expressed mRNA in the presence/in the absence of chemical substance” value (yeast gene YER081W) was 1.6, the “The level of expressed mRNA in the presence of chemical substance/The level of expressed mRNA in the absence of chemical substance” value (yeast gene YER096W) was 1.1 and the “level of expressed mRNA in the presence/in the absence of chemical substance” value (yeast gene YER120W) was 0.9. For the same substance, the “The level of expressed mRNA in the presence of chemical substance/The level of expressed mRNA in the absence of chemical substance” value (yeast gene YER178W) was 0.8, the “level of expressed mRNA in the presence/in the absence of chemical substance” value (yeast gene YFL011W) was 1.2 and the “The level of expressed mRNA in the presence of chemical substance/The level of expressed mRNA in the absence of chemical substance” value (yeast gene YFL014W) was 3.4. The “The level of expressed mRNA in the presence of chemical substance/The level of expressed mRNA in the absence of chemical substance” value (yeast gene YFL030W) was 1.6, the “The level of expressed mRNA in the presence of chemical substance/The level of expressed mRNA in the absence of chemical substance” value (yeast gene YFL031W) was 0.5 and the “The level of expressed mRNA in the presence of chemical substance/The level of expressed mRNA in the absence of chemical substance” value (yeast gene YFL056C) was 19.0. For the same substance, the “The level of expressed mRNA in the presence of chemical substance/The level of expressed mRNA in the absence of chemical substance” value (yeast gene YFL057C) was 20.9, the “The level of expressed mRNA in the presence of chemical substance/The level of expressed mRNA in the absence of chemical substance” value (yeast gene YFR047C) was 1.3 and the “level of expressed mRNA in the presence/in the absence of chemical substance” value (yeast gene YGL012W) was 1.0. For the same substance, the “The level of expressed mRNA in the presence of chemical substance/The level of expressed mRNA in the absence of chemical substance” value (yeast gene YGL022W) was 0.5, the “level of expressed mRNA in the presence/in the absence of chemical substance” value (yeast gene YGL115W) was 0.9 and the “The level of expressed mRNA in the presence of chemical substance/The level of expressed mRNA in the absence of chemical substance” value (yeast gene YGL126W) was 0.6. For the same substance, the “level of expressed mRNA in the presence/in the absence of chemical substance” value (yeast gene YGL205W) was 0.9, the “The level of expressed mRNA in the presence of chemical substance/The level of expressed mRNA in the absence of chemical substance” value (yeast gene YGL209W) was 1.2 and the “The level of expressed mRNA in the presence of chemical substance/The level of expressed mRNA in the absence of chemical substance” value (yeast gene YGL248W) was 1.3. For the same substance, the “The level of expressed mRNA in the presence of chemical substance/The level of expressed mRNA in the absence of chemical substance” value (yeast gene YGR037C) was 1.0, the “The level of expressed mRNA in the presence of chemical substance/The level of expressed mRNA in the absence of chemical substance” value (yeast gene YGR055W) was 2.5 and the “level of expressed mRNA in the presence/in the absence of chemical substance” value (yeast gene YGR096W) was 1.5. For the same substance, the “level of expressed mRNA in the presence/in the absence of chemical substance” value (yeast gene YGR191W) was 0.8, the “The level of expressed mRNA in the presence of chemical substance/The level of expressed mRNA in the absence of chemical substance” value (yeast gene YGR194C) was 0.9 and the “level of expressed mRNA in the presence/in the absence of chemical substance” value (yeast gene YGR204W) was 0.5. The “The level of expressed mRNA in the presence of chemical substance/The level of expressed mRNA in the absence of chemical substance” value (yeast gene YGR256W) was 1.2, the “The level of expressed mRNA in the presence of chemical substance/The level of expressed mRNA in the absence of chemical substance” value (yeast gene YGR282C) was 1.3 and the “level of expressed mRNA in the presence/in the absence of chemical substance” value (yeast gene YGR288W) was 0.9. The “level of expressed mRNA in the presence/in the absence of chemical substance” value (yeast gene YHR025W) was 0.6, the “The level of expressed mRNA in the presence of chemical substance/The level of expressed mRNA in the absence of chemical substance” value (yeast gene YHR111W) was 1.4 and the “level of expressed mRNA in the presence/in the absence of chemical substance” value (yeast gene YHR123W) was 0.7. For the same substance, the “The level of expressed mRNA in the presence of chemical substance/The level of expressed mRNA in the absence of chemical substance” value (yeast gene YHR137W) was 0.7, the “The level of expressed mRNA in the presence of chemical substance/The level of expressed mRNA in the absence of chemical substance” value (yeast gene YHR174W) was 1.1 and the “The level of expressed mRNA in the presence of chemical substance/The level of expressed mRNA in the absence of chemical substance” value (yeast gene YHR176W) was 1.8. For the same substance, the “level of expressed mRNA in the presence/in the absence of chemical substance” value (yeast gene YHR210C) was 1.3, the “level of expressed mRNA in the presence/in the absence of chemical substance” value (yeast gene YIL006W) was 1.0 and the “The level of expressed mRNA in the presence of chemical substance/The level of expressed mRNA in the absence of chemical substance” value (yeast gene YIL045W) was 1.7. For the same substance, the “The level of expressed mRNA in the presence of chemical substance/The level of expressed mRNA in the absence of chemical substance” value (yeast gene YIL107C) was 1.5, the “The level of expressed mRNA in the presence of chemical substance/The level of expressed mRNA in the absence of chemical substance” value (yeast gene YIL154C) was 0.8 and the “The level of expressed mRNA in the presence of chemical substance/The level of expressed mRNA in the absence of chemical substance” value (yeast gene YIL155C) was 1.0. For the same substance, the “The level of expressed mRNA in the presence of chemical substance/The level of expressed mRNA in the absence of chemical substance” value (yeast gene YIR034C) was 1.2, the “The level of expressed mRNA in the presence of chemical substance/The level of expressed mRNA in the absence of chemical substance” value (yeast gene YIR036C) was 1.0 and the “The level of expressed mRNA in the presence of chemical substance/The level of expressed mRNA in the absence of chemical substance” value (yeast gene YJL031C) was 1.6. The “The level of expressed mRNA in the presence of chemical substance/The level of expressed mRNA in the absence of chemical substance” value (yeast gene YJL068C) was 1.2, the “The level of expressed mRNA in the presence of chemical substance/The level of expressed mRNA in the absence of chemical substance” value (yeast gene YJL088W) was 0.9 and the “The level of expressed mRNA in the presence of chemical substance/The level of expressed mRNA in the absence of chemical substance” value (yeast gene YJL099W) was 1.2. The “level of expressed mRNA in the presence/in the absence of chemical substance” value (yeast gene YJL121C) was 1.0, the “level of expressed mRNA in the presence/in the absence of chemical substance” value (yeast gene YJL167W) was 0.9 and the “The level of expressed mRNA in the presence of chemical substance/The level of expressed mRNA in the absence of chemical substance” value (yeast gene YJL172W) was 0.8. For the same substance, the “level of expressed mRNA in the presence/in the absence of chemical substance” value (yeast gene YJL216C) was 0.8, the “The level of expressed mRNA in the presence of chemical substance/The level of expressed mRNA in the absence of chemical substance” value (yeast gene YJL219W) was 1.2 and the “level of expressed mRNA in the presence/in the absence of chemical substance” value (yeast gene YJR077C) was 1.1. The “The level of expressed mRNA in the presence of chemical substance/The level of expressed mRNA in the absence of chemical substance” value (yeast gene YJR137C) was 2.7, the “level of expressed mRNA in the presence/in the absence of chemical substance” value (yeast gene YJR143C) was 0.6 and the “The level of expressed mRNA in the presence of chemical substance/The level of expressed mRNA in the absence of chemical substance” value (yeast gene YJR148W) was 0.7.
